Experiments:
[1] = test system: ADH-4 enzyme SEQ ID NO: 4; assay: Relative activity of dehydrogenase for various substrates, without cofactor regeneration (Example 1); type: biochemical, Candida; conditions: 37° C., approx. 20 hours, chiral gas chromatography
Method: (§1) Relative activity of the dehydrogenases of the invention for various substrates (optical purity in % ee is indicated in brackets)
(§2) The reaction was carried out without cofactor regeneration.
(§3) 180 μl of 50 mM Kpi buffer, including 1 mM MgCl2
(§4) 200 μl of NADPH, 10 mM stock solution
(§5) 100 μl of substrate, 1 M stock solution 500 μl of hexane
(§6) The reaction mixture was incubated at 37° C. and 1000 rpm for approx. 20 hours. It was then centrifuged at 20° C., the clear supernatant was removed and analyzed by chiral gas chromatography.

[2] = test system: ADH-3 enzyme SEQ ID NO: 2; assay: as above; type: biochemical, Candida; conditions: 37° C., approx. 20 hours, chiral gas chromatography
Method: as §1, §2, §3, §4, §5, §6

[3] = test system: Comparative enzyme EP 1152054 SEQ ID NO: 1; assay: Relative activity of dehydrogenase for various substrates, with cofactor regeneration in the 2-phase system (Example 3); type: biochemical
[4] = test system: ADH-3 enzyme SEQ ID NO: 2; assay: as above; type: biochemical, Candida
[5] = test system: ADH-4 enzyme SEQ ID NO: 4; assay: as above; type: biochemical, Candida
[6] = test system: Comparative enzyme EP 1152054 SEQ ID NO: 1; assay: Relative activity of dehydrogenase for various substrates, without cofactor regeneration (Example 1); type: biochemical; conditions: 37° C., approx. 20 hours
Method: as §1, §2, §3, §4, §5, §6

[7] = test system: ADH-3 enzyme SEQ ID NO: 2; assay: Relative activity of dehydrogenase for various substrates, with cofactor regeneration, monophasic liquid system (Example 2); type: biochemical, Candida; conditions: cofactor regeneration with glucose and glucose dehydrogenase
Method: (§7) Relative activity of the dehydrogenases of the invention for various substrates (optical purity in % ee is indicated in brackets) with cofactor regeneration.
(§8) The reaction was carried out in a manner similar to example 1. Cofactor regeneration was carried out by way of addition of glucose and glucose dehydrogenase in a monophasic liquid system.

[8] = test system: Comparative enzyme EP 1152054 SEQ ID NO: 1; assay: as above; type: biochemical; conditions: cofactor regeneration with glucose and glucose dehydrogenase
Method: as §7, §8

[9] = test system: ADH-4 enzyme SEQ ID NO: 4; assay: as above; type: biochemical, Candida; conditions: cofactor regeneration with glucose and glucose dehydrogenase
Method: as §7, §8

[10] = cofactor regeneration, two-phase liquid system (MTBE: aqueous)
[11] = ADH-3 enzyme, cofactor regeneration, two-phase liquid system (MTBE: aqueous)
[12] = ADH-4 enzyme, cofactor regeneration, two-phase liquid system (MTBE: aqueous)

Compound: 4-chloro-methoxyacetophenone [CMAP]
- Relative activity [1]: 24.89
- Relative activity [2]: 34.46
- Relative activity [3, 10]: 46.8
- Relative activity [4, 11]: 100
- Relative activity [5, 12]: 77.1
- Relative activity [6]: 29.44

Compound: CC(=O)c1ccccc1 [Acetophenone]
- Relative activity [1]: 3.14
- Relative activity [2]: 16.08
- Relative activity [3, 10]: 0.2
- Relative activity [4, 11]: 71.2
- Relative activity [5, 12]: 0.4
- Relative activity [7]: 8.9
- Relative activity [6]: 0.84
- Relative activity [8]: 0.7

Compound: O=C(CCl)c1ccc(F)cc1 [FCA, 4′-fluoro-2-chloro-acetophenone]
- Relative activity ([3]; […]): 12.6
- Relative activity [4]: 99.5
- Relative activity [5]: 15.3
- Relative activity [9]: 53.6
- Relative activity [7]: 99.5
- Relative activity [8]: 50.4

Compound: O=C(CCl)c1cccc(Cl)c1 [m-DICAP, 2,3′-dichloro-acetophenone]
- Relative activity [1]: 56.38
- Relative activity [2]: 100
- Relative activity ([3]; […]): 14 (>99% R)
- Relative activity [4]: 100
- Relative activity [5]: 24.6 (6% S)
- Relative activity [9]: 55.8
- Relative activity [7]: 100
- Relative activity [6]: 2.3
- Relative activity [8]: 47.1

Compound: O=C(CCl)c1ccc(Cl)cc1 [p-DICAP, 2,4′-dichloro-acetophenone]
- Relative activity ([3]; […]): 24.2 (>99% R)
- Relative activity [4]: 30.4 (>99% R)
- Relative activity [5]: 27.6 (42% S)
- Relative activity [9]: 62.1
- Relative activity [7]: 18.9
- Relative activity [8]: 62.5
